One experiment has as its system MV4-11 cells. Nature of the experiment: MV4-11 6-day cell growth CTG (CellTiter-Glo) assay. The class given is cell-based. The note with it: Homo sapiens, MV4-11, 144 h, 6 days, read-out: (c) MLL/WDR5 cell proliferation assay//MLL/WDR5 proliferation MV4:11 Qualified AC50. The essentials: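 Exponentially growing MV4-11 AML cells (RPMI 1640, 10% FBS) seeded at 300 cells/well with 12-point 1:3 compound dilutions, top final concentration 50 μM. Viability read by CellTiter-Glo luminescence after 6 days at 37° C; % inhibition vs DMSO-only wells fitted to dose-response for IC50.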
For orientation: ATP-based viability assays read luminescence as a measure of living cells.

The target in experiment [1] is wild type MLL1 four-member complex (MLL1-4C) (Homo sapiens, UniProt P61964). Nature of the experiment: MLL1 LC-MS assay (SAH production). The experiment is classed as biochemical. The note with it: read-out: (b) MLL LCMS Peptide Val.v.1 Qualified AC50. Put shortly: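 MLL1-4C (30 nM final) was preincubated 20 min with compound (3-fold dilutions, 8 or 12 points) and SAM in Tris-HCl pH 8.0 buffer. H3K4me0 peptide (histone H3[1-21]-biotin) was then added, giving final 2.5 μM SAM and 10 μM substrate, and reactions ran 120 min at rt. After TFA/d4-SAH quench, SAH was quantified by LC-MS/MS and IC50 fitted from control-normalised activity.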

For the next experiment, the target named is WDR5 (Homo sapiens, UniProt P61964). Nature of the experiment: WDR5 HTRF binding assay. The following applies: read-out: (a) WDR5 HTRF Pep Val v.1[Inhibitor/IC50]Qualified AC50. Put shortly:
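6 nM WDR5 and 20 nM biotin-MLL1 WIN peptide (3762-3773) were incubated with compound (12-point, 3-fold dilutions) in pH 7.5 Hepes/NaCl/DTT buffer for 20 min at rt. Streptavidin-APC plus anti-His-Eu were then added for 1 hr, with HTRF read at 665/615. IC50 was fit from control-normalized activity; the counter assay used 15 nM biotin-PEG-His peptide.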
(In general: In TR-FRET formats the signal depends on donor and acceptor labels being close together.)

As for `CNc1nccn1Cc1cc(CN2CC[C@H](F)C2)c2c(c1)C(=O)N([C@@H](C)c1cc(OC)c(F)cn1)CC2` [Example 44, 2-((S)-1-(5-fluoro-4-methoxypyridin-2-yl)ethyl)-5-(((S)-3-fluoropyrrolidin-1-yl)methyl)-7-((2-(methylamino)-1H-imidazol-1-yl)methyl)-3,4-dihydroisoquinolin-1(2H)-one], the AC50 (in the experiment on MV4-11 cells; in experiment [1]) was 10 to 1000 nM throughout. In addition, the IC50 at WDR5 lay within 10 to 1000 nM.

`CCOc1cc([C@H](C)N2CCc3c(cc(CCN(C)CC)cc3-c3cc(C(C)O)cnc3C)C2=O)ncc1C#N` (stereo partly drawn) [Example 186, 4-ethoxy-6-((1S)-1-(7-(2-(ethyl(methyl)amino)ethyl)-5-(5-(1-hydroxyethyl)-2-methylpyridin-3-yl)-1-oxo-3,4-dihydroisoquinolin-2(1H)-yl)ethyl)nicotinonitrile]: the AC50 (in the experiment with MV4-11 cells; in experiment [1]) was 10 to 1000 nM in each case. Further, at WDR5, the IC50 was under 10 nM.

Turning to `CCOc1cc(CN2CCc3c(Cl)cc(Cn4ccnc4NC)cc3C2=O)cnc1C#N` [Example 6, 5-((5-chloro-7-((2-(methylamino)-1H-imidazol-1-yl)methyl)-1-oxo-3,4-dihydroisoquinolin-2(1H)-yl)methyl)-3-ethoxypicolinonitrile], the AC50 (with MV4-11 cells; in experiment [1]) was 10 to 1000 nM each time. Moreover, the IC50 at WDR5 lay within 10 to 1000 nM.

Take `CCOc1cc(C(C)N2CCc3c(cc(CCN(C)CCOC)cc3-c3cn(C)c(=O)cc3Cl)C2=O)ncc1C#N` (stereo not drawn) [Example 233]: the AC50 (in the experiment on MV4-11 cells; in experiment [1]) was 10 to 1000 nM throughout. Besides, the IC50 at WDR5 was under 10 nM.

As to `CCOc1cc([C@H](C)N2CCc3c(cc(Cn4ccnc4C)cc3[C@H]3CCCN3C)C2=O)ncc1C#N` (single isomer, unassigned) [Example 267], the AC50 (in the experiment with MV4-11 cells; in experiment [1]) was 10 to 1000 nM each time. The IC50 at WDR5 is under 10 nM.

Consider `CCOc1cc([C@H](C)N2CCc3c(Cl)cc(Cn4ccnc4NC)cc3C2=O)ncc1F` [Example 5, (S)-5-chloro-2-(1-(4-ethoxy-5-fluoropyridin-2-yl)ethyl)-7-((2-(methylamino)-1H-imidazol-1-yl)methyl)-3,4-dihydroisoquinolin-1(2H)-one], for which the AC50 (with MV4-11 cells; in experiment [1]) was 10 to 1000 nM throughout. Also, the IC50 at WDR5 lay in the range of 10 to 1000 nM.

Turning to `CCOc1cc(C(C)N2CCc3c(cc(CCN(C)CC)cc3-c3cc(Cl)nnc3Cl)C2=O)ncc1C#N` (stereo not drawn) [Example 168, 6-(1-(5-(3,6-dichloropyridazin-4-yl)-7-(2-(ethyl(methyl)amino)ethyl)-1-oxo-3,4-dihydroisoquinolin-2(1H)-yl)ethyl)-4-ethoxynicotinonitrile], the AC50 (in the experiment with MV4-11 cells; in experiment [1]) was 10 to 1000 nM in each case. In addition, the IC50 at WDR5 is under 10 nM.

As to `CNc1nccn1Cc1cc(CN2CC(OC)C2)c2c(c1)C(=O)N([C@@H](C)c1cc(OC)c(F)cn1)CC2` [Example 31, (S)-2-(1-(5-fluoro-4-methoxypyridin-2-yl)ethyl)-5-((3-methoxyazetidin-1-yl)methyl)-7-((2-(methylamino)-1H-imidazol-1-yl)methyl)-3,4-dihydroisoquinolin-1(2H)-one], the AC50 (with MV4-11 cells; in experiment [1]) was 10 to 1000 nM in each case. On WDR5, the IC50 is 10 to 1000 nM.

`CNc1nccn1Cc1cc(CN2CC(O)C2)c2c(c1)C(=O)N([C@@H](C)c1cc(OC)c(F)cn1)CC2` (single isomer, unassigned) [Example 51]: the AC50 (in the experiment with MV4-11 cells; in experiment [1]) was 10 to 1000 nM each time. Further, on WDR5, the IC50 was under 10 nM.

Take `CCOc1cc([C@H](C)N2CCc3c(cc(Cn4ccnc4C)cc3-c3cn(C)c(=O)c(F)c3C)C2=O)ncc1C#N` [Example 287]: the AC50 (with MV4-11 cells; in experiment [1]) was 10 to 1000 nM each time. Moreover, the IC50 on WDR5 is under 10 nM.

Regarding `CCN(C)CCc1cc2c(c(-c3ccc(F)nc3C)c1)CCN(Cc1cnc(F)c(OC)c1)C2=O` [Example 137, 7-(2-(ethyl(methyl)amino)ethyl)-5-(6-fluoro-2-methylpyridin-3-yl)-2-((6-fluoro-5-methoxypyridin-3-yl)methyl)-3,4-dihydroisoquinolin-1(2H)-one], the AC50 (in the experiment with MV4-11 cells; in experiment [1]) was 10 to 1000 nM in each case. The IC50 on WDR5 was under 10 nM.

On to `CNc1nccn1Cc1cc2c(c(-c3c[nH]nc3C)c1)CCN(Cc1ccc(F)c(OC)c1)C2=O` [Example 55, 2-(4-fluoro-3-methoxybenzyl)-5-(3-methyl-1H-pyrazol-4-yl)-7-((2-(methylamino)-1H-imidazol-1-yl)methyl)-3,4-dihydroisoquinolin-1(2H)-one], for which the AC50 (in the experiment with MV4-11 cells; in experiment [1]) was 10 to 1000 nM in each case. For the same compound, the IC50 at WDR5 is 10 to 1000 nM.

As to `CCOc1cc([C@H](C)N2CCc3c(cc(CCN(C)CC)cc3-c3cc(C4CC4)cnc3C)C2=O)ncc1C#N` [Example 160, (S)-6-(1-(5-(5-cyclopropyl-2-methylpyridin-3-yl)-7-(2-(ethyl(methyl)amino)ethyl)-1-oxo-3,4-dihydroisoquinolin-2(1H)-yl)ethyl)-4-ethoxynicotinonitrile], the AC50 (with MV4-11 cells; in experiment [1]) was 10 to 1000 nM throughout. Besides, the IC50 on WDR5 was under 10 nM.

For `CCOc1cc([C@H](C)N2CCc3c(cc(Cn4ccnc4C)cc3-c3cn(C)c(=O)cc3C)C2=O)ncc1F` [Example 281], the AC50 (in the experiment with MV4-11 cells; in experiment [1]) was 10 to 1000 nM throughout. The IC50 on WDR5 was under 10 nM.

For the compound `CCOc1cc([C@H](C)N2CCc3c(cc(CCN4C[C@@H](OC)[C@H]4C)cc3-c3ccc(F)nc3C)C2=O)ncc1C#N` [Example 244], the AC50 (in the experiment on MV4-11 cells; in experiment [1]) was 10 to 1000 nM throughout. Besides, the IC50 on WDR5 is 10 to 1000 nM.

Take `CCOc1cc([C@H](C)N2CCc3c(cc(CCN(C)CC)cc3-c3cn(C)nc3C)C2=O)ncc1Cl` [Example 121, (S)-2-(1-(5-chloro-4-ethoxypyridin-2-yl)ethyl)-5-(1,3-dimethyl-1H-pyrazol-4-yl)-7-(2-(ethyl(methyl)amino)ethyl)-3,4-dihydroisoquinolin-1(2H)-one]: the AC50 (with MV4-11 cells; in experiment [1]) was 10 to 1000 nM in each case. Moreover, at WDR5, the IC50 was under 10 nM.

Take `CNc1nccn1Cc1cc2c(c(-c3cc(CO)cnc3Cl)c1)CCN(Cc1ccc(F)c(OC)c1)C2=O` [Example 53, 5-(2-chloro-5-(hydroxymethyl)pyridin-3-yl)-2-(4-fluoro-3-methoxybenzyl)-7-((2-(methylamino)-1H-imidazol-1-yl)methyl)-3,4-dihydroisoquinolin-1(2H)-one]: the AC50 (in the experiment on MV4-11 cells; in experiment [1]) was 10 to 1000 nM throughout. Also, the IC50 at WDR5 is 10 to 1000 nM.

Consider `CNc1nccn1Cc1cc(CN2CCOCC2)c2c(c1)C(=O)N([C@@H](C)c1cnc(F)c(OC)c1)CC2` [Example 8, (S)-2-(1-(6-fluoro-5-methoxypyridin-3-yl)ethyl)-7-((2-(methylamino)-1H-imidazol-1-yl)methyl)-5-(morpholinomethyl)-3,4-dihydroisoquinolin-1(2H)-one], for which the AC50 (with MV4-11 cells; in experiment [1]) was 10 to 1000 nM throughout. The IC50 on WDR5 was under 10 nM.

On to `CCOc1cc([C@H](C)N2CCc3c(cc(Cn4ccnc4C)cc3-c3cn(S(C)(=O)=O)nc3C)C2=O)ncc1C#N` [Example 284], for which the AC50 (in the experiment with MV4-11 cells; in experiment [1]) was 10 to 1000 nM in each case. For the same compound, the IC50 on WDR5 was under 10 nM.

These data come from patent US20220289732A1, “HETEROCYCLIC WDR5 INHIBITORS AS ANTI-CANCER COMPOUNDS” (NOVARTIS AG, priority 2019, published 2022).
